From PubChem BioAssay (NCI)
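GI50 is the concentration that inhibits growth by half. TGI denotes the concentration required for complete inhibition of growth.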

What was measured:
Experiment in all cases: NCI anticancer screen, dose series, 384-well format
786-0 renal = tested on: 786-0 renal
A498 renal = tested on: A498 renal
A549 NSCLC = tested on: A549 NSCLC
ACHN renal = tested on: ACHN renal
BT-549 breast = tested on: BT-549 breast
CAKI-1 renal = tested on: CAKI-1 renal
CCRF-CEM leukemia = tested on: CCRF-CEM leukemia
EKVX NSCLC = tested on: EKVX NSCLC
HCC-2998 colon = tested on: HCC-2998 colon
HCT-15 colon = tested on: HCT-15 colon
HL-60(TB) leukemia = tested on: HL-60(TB) leukemia
HOP-62 NSCLC = tested on: HOP-62 NSCLC
HOP-92 NSCLC = tested on: HOP-92 NSCLC
HS 578T breast = tested on: HS 578T breast
HT29 colon = tested on: HT29 colon
IGROV1 ovarian = tested on: IGROV1 ovarian
K-562 leukemia = tested on: K-562 leukemia
MCF7 breast = tested on: MCF7 breast
MDA-MB-231 breast = tested on: MDA-MB-231 breast
MDA-MB-435 melanoma = tested on: MDA-MB-435 melanoma
MDA-MB-468 breast = tested on: MDA-MB-468 breast
MOLT-4 leukemia = tested on: MOLT-4 leukemia
NCI-H226 lung = tested on: NCI-H226 lung
NCI-H23 lung = tested on: NCI-H23 lung
NCI-H322M lung = tested on: NCI-H322M lung
NCI-H460 NSCLC = tested on: NCI-H460 NSCLC
NCI-H522 lung = tested on: NCI-H522 lung
NCI/ADR-RES ovarian = tested on: NCI/ADR-RES ovarian
OVCAR-3 ovarian = tested on: OVCAR-3 ovarian
OVCAR-4 ovarian = tested on: OVCAR-4 ovarian
OVCAR-5 ovarian = tested on: OVCAR-5 ovarian
OVCAR-8 ovarian = tested on: OVCAR-8 ovarian
PC-3 prostate = tested on: PC-3 prostate
RPMI-8226 leukemia = tested on: RPMI-8226 leukemia
SF-268 CNS = tested on: SF-268 CNS
SF-295 CNS = tested on: SF-295 CNS
SF-539 CNS = tested on: SF-539 CNS
SK-MEL-5 melanoma = tested on: SK-MEL-5 melanoma
SK-OV-3 ovarian = tested on: SK-OV-3 ovarian
SN12C renal = tested on: SN12C renal
SNB-19 CNS = tested on: SNB-19 CNS
SNB-75 CNS = tested on: SNB-75 CNS
SR leukemia = tested on: SR leukemia
SW-620 colon = tested on: SW-620 colon
T-47D breast = tested on: T-47D breast
TK-10 renal = tested on: TK-10 renal
U251 glioblastoma = tested on: U251 glioblastoma
UO-31 renal = tested on: UO-31 renal

Structure (SMILES): Cc1ncc(CCCN(C)C)cc1Nc1ncc2c(n1)-c1ccc(C(F)(F)F)cc1NC(=S)C2
- GI50 ([…]-0 renal): < 0.01 µM
- TGI (786-0 renal): 0.305 µM
- GI50 (A498 renal): < 0.01 µM
- TGI (A498 renal): 12.7 µM
- GI50 (A549 NSCLC): < 0.01 µM
- TGI (A549 NSCLC): 0.17 µM
- GI50 (ACHN renal): 0.0444 µM
- TGI (ACHN renal): 15.3 µM
- GI50 (BT-549 breast): < 0.01 µM
- TGI (BT-549 breast): 0.0371 µM
- GI50 (CAKI-1 renal): 0.0592 µM
- TGI (CAKI-1 renal): 12.9 µM
- GI50 (CCRF-CEM leukemia): < 0.01 µM
- TGI (CCRF-CEM leukemia): < 0.01 µM
- GI50 (EKVX NSCLC): 0.0116 µM
- TGI (EKVX NSCLC): 17.8 µM
- GI50 (HCC-2998 colon): < 0.01 µM
- TGI (HCC-2998 colon): 0.0139 µM
- GI50 (HCT-15 colon): < 0.01 µM
- TGI (HCT-15 colon): 0.0351 µM
- GI50 (HL-60(TB) leukemia): < 0.01 µM
- TGI (HL-60(TB) leukemia): < 0.01 µM
- GI50 (HOP-62 NSCLC): < 0.01 µM
- TGI (HOP-62 NSCLC): 0.037 µM
- GI50 (HOP-92 NSCLC): < 0.01 µM
- TGI (HOP-92 NSCLC): 6.28 µM
- GI50 (HS 578T breast): < 0.01 µM
- TGI (HS 578T breast): 0.0215 µM
- GI50 (HT29 colon): < 0.01 µM
- TGI (HT29 colon): < 0.01 µM
- GI50 (IGROV1 ovarian): < 0.01 µM
- TGI (IGROV1 ovarian): 16.1 µM
- GI50 (K-562 leukemia): < 0.01 µM
- TGI (K-562 leukemia): < 0.01 µM
- GI50 (MCF7 breast): < 0.01 µM
- TGI (MCF7 breast): 2.27 µM
- GI50 (MDA-MB-231 breast): < 0.01 µM
- TGI (MDA-MB-231 breast): 12.2 µM
- GI50 (MDA-MB-435 melanoma): < 0.01 µM
- TGI (MDA-MB-435 melanoma): < 0.01 µM
- GI50 (MDA-MB-468 breast): < 0.01 µM
- TGI (MDA-MB-468 breast): < 0.01 µM
- GI50 (MOLT-4 leukemia): < 0.01 µM
- TGI (MOLT-4 leukemia): < 0.01 µM
- GI50 (NCI-H226 lung): 0.512 µM
- TGI (NCI-H226 lung): 6.71 µM
- GI50 (NCI-H23 lung): < 0.01 µM
- TGI (NCI-H23 lung): < 0.01 µM
- GI50 (NCI-H322M lung): 4.46 µM
- TGI (NCI-H322M lung): 19.8 µM
- GI50 (NCI-H460 NSCLC): < 0.01 µM
- TGI (NCI-H460 NSCLC): < 0.01 µM
- GI50 (NCI-H522 lung): < 0.01 µM
- TGI (NCI-H522 lung): < 0.01 µM
- GI50 (NCI/ADR-RES ovarian): 0.0314 µM
- TGI (NCI/ADR-RES ovarian): 0.179 µM
- GI50 (OVCAR-3 ovarian): < 0.01 µM
- TGI (OVCAR-3 ovarian): < 0.01 µM
- GI50 (OVCAR-4 ovarian): < 0.01 µM
- TGI (OVCAR-4 ovarian): 13.2 µM
- GI50 (OVCAR-5 ovarian): < 0.01 µM
- TGI (OVCAR-5 ovarian): 0.173 µM
- GI50 (OVCAR-8 ovarian): < 0.01 µM
- TGI (OVCAR-8 ovarian): < 0.01 µM
- GI50 (PC-3 prostate): < 0.01 µM
- TGI (PC-3 prostate): 14.3 µM
- GI50 (RPMI-8226 leukemia): < 0.01 µM
- TGI (RPMI-8226 leukemia): < 0.01 µM
- GI50 (SF-268 CNS): < 0.01 µM
- TGI (SF-268 CNS): 1.99 µM
- GI50 (SF-295 CNS): < 0.01 µM
- TGI (SF-295 CNS): 0.0171 µM
- GI50 (SF-539 CNS): < 0.01 µM
- TGI (SF-539 CNS): 0.117 µM
- GI50 (SK-MEL-5 melanoma): < 0.01 µM
- TGI (SK-MEL-5 melanoma): 0.0127 µM
- GI50 (SK-OV-3 ovarian): < 0.01 µM
- TGI (SK-OV-3 ovarian): 1.69 µM
- GI50 (SN12C renal): 0.138 µM
- TGI (SN12C renal): 3.47 µM
- GI50 (SNB-19 CNS): < 0.01 µM
- TGI (SNB-19 CNS): 0.641 µM
- GI50 (SNB-75 CNS): < 0.01 µM
- TGI (SNB-75 CNS): 0.0152 µM
- GI50 (SR leukemia): < 0.01 µM
- TGI (SR leukemia): < 0.01 µM
- GI50 (SW-620 colon): < 0.01 µM
- TGI (SW-620 colon): 0.0148 µM
- GI50 (T-47D breast): 0.0375 µM
- TGI (T-47D breast): 15.1 µM
- GI50 (TK-10 renal): 1.73 µM
- TGI (TK-10 renal): 19.7 µM
- GI50 (U251 glioblastoma): < 0.01 µM
- TGI (U251 glioblastoma): 11.2 µM
- GI50 (UO-31 renal): 0.099 µM
- TGI (UO-31 renal): 19.8 µM
